Experimental data from patent publication US20250179066A1, “ZWITTERIONIC ANTIBACTERIAL COMPOUNDS” (Hoffmann-La Roche Inc., priority 2022, published 2025).
Where a name gives a salt, the structure may show the parent alone. Read-outs that look alike come from different tables or passages of the source.

Tested on: Acinetobacter baumannii ATCC17961
Experiment: Antimicrobial susceptibility testing: 90% growth inhibitory concentration (IC90) determination
Assay type: cell-based
Settings: 90% growth inhibitory concentration against Acinetobacter baumannii ATCC17961, Iso-Sensitest broth, OD 600 nm over 16 h, read-out: ATCC 17961 IC90
Method in brief: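 OD600 monitored each minute over 16 h at 35±2° C for bacteria (~5×10^5 CFU/mL final) in Iso-Sensitest medium with 10-point twofold compound series (e.g. 10-0.0195 μM final). Concentration giving 90% growth inhibition in log phase reported as IC90.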

[1] = Acinetobacter baumannii, ATCC17961, 16 h

IC90 [1] [nM] | SMILES | IC90 [nM]
217 | C[C@@H](O)c1cc2nc(-n3cc(-c4cnc(C(=O)Nc5ccc(C(=O)N6CCN(C(=O)[C@H]7CC[N@+](CC(=O)O)(CC8CNC8)CC7)CC6)c(Cl)c5)n4C)c(C(F)(F)F)n3)ccc2[nH]1 [Example 150, cis-2-[1-(azetidin-3-ylmethyl)-4-[4-[2-chloro-4-[[5-[1-[2-[(1R)-1-hydroxyethyl]-1H-pyrrolo[3,2-b]pyridin-5-yl]-3-(trifluoromethyl)pyrazol-4-yl]-1-methyl-imidazole-2-carbonyl]amino]benzoyl]piperazine-1-carbonyl]piperidin-1-ium-1-yl]acetic acid;formate] | –
460 | Cn1c(-c2cn(-c3nccs3)nc2C(F)(F)F)cnc1C(=O)Nc1ccc(C(=O)N2CCN(C(=O)C3CC[N+](CC(=O)O)(CC4CNC4)CC3)CC2)c(Cl)c1 (stereo not shown) [Example 43, 2-[1-(azetidin-3-ylmethyl)-4-[4-[2-chloro-4-[[1-methyl-5-[1-thiazol-2-yl-3-(trifluoromethyl)pyrazol-4-yl]imidazole-2-carbonyl]amino]benzoyl]piperazine-1-carbonyl]piperidin-1-ium-1-yl]acetic acid. 1:1 formate] | –
196 | COCCNc1ccc(-n2cc(-c3cnc(C(=O)Nc4ccc(C(=O)N5CCN(C(=O)[C@H]6CC[N@+](CC(=O)O)(CC7CNC7)CC6)CC5)c(Cl)c4)n3C)c(C(F)(F)F)n2)c(F)c1 [Example 185, cis-2-[1-(azetidin-3-ylmethyl)-4-[4-[2-chloro-4-[[5-[1-[2-fluoro-4-(2-methoxyethylamino)phenyl]-3-(trifluoromethyl)pyrazol-4-yl]-1-methyl-imidazole-2-carbonyl]amino]benzoyl]piperazine-1-carbonyl]piperidin-1-ium-1-yl]acetic acid. 1:1 2,2,2-trifluoroacetate] | –
195 | Cn1c(-c2cn(-c3ccc(N4CCOCC4)cc3F)nc2C(F)(F)F)cnc1C(=O)Nc1ccc(C(=O)N2CCN(C(=O)[C@H]3CC[N@@+](CCCN)(CC(=O)O)CC3)CC2)c(Cl)c1 [Example 100, cis-2-[1-(3-aminopropyl)-4-[4-[2-chloro-4-[[5-[1-(2-fluoro-4-morpholino-phenyl)-3-(trifluoromethyl)pyrazol-4-yl]-1-methyl-imidazole-2-carbonyl]amino]benzoyl]piperazine-1-carbonyl]piperidin-1-ium-1-yl]acetic acid;formate] | –
680 | Cn1c(-c2cn(-c3ccc(N)cn3)nc2C(F)(F)F)cnc1C(=O)Nc1ccc(C(=O)N2CCN(C(=O)[C@H]3CC[N@@+](CC(=O)O)(CC4CNC4)CC3)CC2)c(Cl)c1 [Example 64, trans-2-[4-[4-[4-[[5-[1-(5-amino-2-pyridyl)-3-(trifluoromethyl)pyrazol-4-yl]-1-methyl-imidazole-2-carbonyl]amino]-2-chloro-benzoyl]piperazine-1-carbonyl]-1-(azetidin-3-ylmethyl)piperidin-1-ium-1-yl]acetic acid. 1:1 2,2,2-trifluoroacetic acid. 1:1 2,2,2-trifluoroacetate] | –
1370 | Cn1c(-c2cn(-c3ccc(N)cn3)nc2C(F)(F)F)cnc1C(=O)Nc1ccc(C(=O)N2CCN(C(=O)C3CC[N+](CC(=O)O)(CC4CNC4)CC3)C3(CC3)C2)c(Cl)c1 (stereo not shown) [Example 86, 2-[4-[7-[4-[[5-[1-(5-amino-2-pyridyl)-3-(trifluoromethyl)pyrazol-4-yl]-1-methyl-imidazole-2-carbonyl]amino]-2-chloro-benzoyl]-4,7-diazaspiro[2.5]octane-4-carbonyl]-1-(azetidin-3-ylmethyl)piperidin-1-ium-1-yl]acetic acid. 1:1 formate] | –
384 | Cc1cc(NC(=O)c2ncc(-c3cn(-c4ccc5[nH]c(CO)cc5n4)nc3C(F)(F)F)n2C)ccc1C(=O)N1CCN(C(=O)[C@H]2CC[N@+](CC(=O)O)(CC3CNC3)CC2)CC1 [Example 153, cis-2-[1-(azetidin-3-ylmethyl)-4-[4-[2-methyl-4-[[1-methyl-5-[1-(2-methylol-1H-pyrrolo[3,2-b]pyridin-5-yl)-3-(trifluoromethyl)pyrazol-4-yl]imidazole-2-carbonyl]amino]benzoyl]piperazine-1-carbonyl]piperidin-1-ium-1-yl]acetic acid. 1:1 2,2,2-trifluoroacetate] | –
240 | Cn1c(-c2cn(-c3ccc(N)cc3F)nc2C(F)(F)F)cnc1C(=O)Nc1ccc(C(=O)N2CCN(C(=O)C3CC[N+](CC(=O)O)(CC4CNC4)CC3)CC2)c(Cl)c1 (stereo not shown) [Example 17, 2-[4-[4-[4-[[5-[1-(4-amino-2-fluoro-phenyl)-3-(trifluoromethyl)pyrazol-4-yl]-1-methyl-imidazole-2-carbonyl]amino]-2-chloro-benzoyl]piperazine-1-carbonyl]-1-(azetidin-3-ylmethyl)piperidin-1-ium-1-yl]acetic acid. 1:1 2,2,2-trifluoroacetate] | –
– | Cn1c(-c2cn(-c3ccc(N)cc3F)nc2C(F)(F)F)cnc1C(=O)Nc1ccc(C(=O)N2CCN(C(=O)OCC[N+](CCCN)(CCCN)CC(=O)O)CC2)c(Cl)c1 [Example 130, 2-[4-[4-[[5-[1-(4-amino-2-fluoro-phenyl)-3-(trifluoromethyl)pyrazol-4-yl]-1-methyl-imidazole-2-carbonyl]amino]-2-chloro-benzoyl]piperazine-1-carbonyl]oxyethyl-bis(3-aminopropyl)-(carboxymethyl)ammonium; formate] | 252
199 | Cn1c(-c2cn(-c3ccc(N)cc3F)nc2C(F)(F)F)cnc1C(=O)Nc1ccc(C(=O)N2CCN(C(=O)[C@H]3CC[N@@+](CCCN)(CC(=O)O)CC3)CC2)c(Cl)c1 [Example 170, cis-2-[4-[4-[4-[[5-[1-(4-amino-2-fluoro-phenyl)-3-(trifluoromethyl)pyrazol-4-yl]-1-methyl-imidazole-2-carbonyl]amino]-2-chloro-benzoyl]piperazine-1-carbonyl]-1-(3-aminopropyl)piperidin-1-ium-1-yl]acetic acid. 1:1 2,2,2-trifluoroacetate] | –
707 | Cn1c(-c2cn(-c3cc4[nH]c(C(=O)N5CC6(CCOCC6)C5)cc4cn3)nc2C(F)(F)F)cnc1C(=O)Nc1ccc(C(=O)N2CCN(C(=O)[C@H]3CC[N@+](CC(=O)O)(CC4CNC4)CC3)CC2)c(Cl)c1 [Example 113, cis-2-[1-(azetidin-3-ylmethyl)-4-[4-[2-chloro-4-[[1-methyl-5-[1-[2-(7-oxa-2-azaspiro[3.5]nonane-2-carbonyl)-1H-pyrrolo[3,2-c]pyridin-6-yl]-3-(trifluoromethyl)pyrazol-4-yl]imidazole-2-carbonyl]amino]benzoyl]piperazine-1-carbonyl]piperidin-1-ium-1-yl]acetic acid. 1:1 2,2,2-trifluoroacetate] | –
163 | Cn1c(-c2cn(-c3ccc(NCC(C)(C)O)cc3F)nc2C(F)(F)F)cnc1C(=O)Nc1ccc(C(=O)N2CCN(C(=O)[C@H]3CC[N@+](CC(=O)O)(CC4CNC4)CC3)CC2)c(Cl)c1 [Example 164, cis-2-[1-(azetidin-3-ylmethyl)-4-[4-[2-chloro-4-[[5-[1-[2-fluoro-4-[(2-hydroxy-2-methyl-propyl)amino]phenyl]-3-(trifluoromethyl)pyrazol-4-yl]-1-methyl-imidazole-2-carbonyl]amino]benzoyl]piperazine-1-carbonyl]piperidin-1-ium-1-yl]acetic acid;formate] | –
360 | Cn1c(-c2cn(-c3ccc(N4CCOCC4)cn3)nc2C(F)(F)F)cnc1C(=O)Nc1ccc(C(=O)N2CCN(C(=O)C3CC[N+](CC(=O)O)(CC4CNC4)CC3)CC2)c(Cl)c1 (stereo not shown) [Example 26, 2-[1-(azetidin-3-ylmethyl)-4-[4-[2-chloro-4-[[1-methyl-5-[1-(5-morpholino-2-pyridyl)-3-(trifluoromethyl)pyrazol-4-yl]imidazole-2-carbonyl]amino]benzoyl]piperazine-1-carbonyl]piperidin-1-ium-1-yl]acetic acid. 1:1 formate] | –
474 | Cn1c(-c2cn(-c3ccc4[nH]c(C[C@H](O)CO)cc4n3)nc2C(F)(F)F)cnc1C(=O)Nc1ccc(C(=O)N2CCN(C(=O)[C@H]3CC[N@+](CC(=O)O)(CC4CNC4)CC3)CC2)c(Cl)c1 [Example 160, cis-2-[1-(azetidin-3-ylmethyl)-4-[4-[2-chloro-4-[[5-[1-[2-[(2S)-2,3-dihydroxypropyl]-1H-pyrrolo[3,2-b]pyridin-5-yl]-3-(trifluoromethyl)pyrazol-4-yl]-1-methyl-imidazole-2-carbonyl]amino]benzoyl]piperazine-1-carbonyl]piperidin-1-ium-1-yl]acetic acid;formate] | –
370 | Cn1c(-c2cn(-c3ccc4c(ccn4CCO)n3)nc2C(F)(F)F)cnc1C(=O)Nc1ccc(C(=O)N2CCN(C(=O)[C@H]3CC[N@+](CC(=O)O)(CC4CNC4)CC3)CC2)c(Cl)c1 [Example 198, cis-2-[1-(azetidin-3-ylmethyl)-4-[4-[2-chloro-4-[[5-[1-[1-(2-hydroxyethyl)pyrrolo[3,2-b]pyridin-5-yl]-3-(trifluoromethyl)pyrazol-4-yl]-1-methyl-imidazole-2-carbonyl]amino]benzoyl]piperazine-1-carbonyl]piperidin-1-ium-1-yl]acetic acid. 1:1 2,2,2-trifluoroacetate] | –
430 | Cn1c(-c2cn(-c3ccc4c(ccn4C)n3)nc2C(F)(F)F)cnc1C(=O)Nc1ccc(C(=O)N2CCN(C(=O)[C@H]3CC[N@+](CC(=O)O)(CC4CNC4)CC3)CC2)c(Cl)c1 [Example 39, cis-2-[1-(azetidin-3-ylmethyl)-4-[4-[2-chloro-4-[[1-methyl-5-[1-(1-methylpyrrolo[3,2-b]pyridin-5-yl)-3-(trifluoromethyl)pyrazol-4-yl]imidazole-2-carbonyl]amino]benzoyl]piperazine-1-carbonyl]piperidin-1-ium-1-yl]acetic acid. 1:1 2,2,2-trifluoroacetate] | –
